From the NIST ThermoML archive (doi:10.1021/je049633+)

Assay: xn = mol fraction of the nth substance listed
Details: Gas, isochoric method

[N-]=[N+]=O [nitrous oxide] + O=C=O
Details	molar volume [m3/mol]
238.1 K, 1004.5 kPa, x2 = 0.5959	0.001705
238.1 K, 1194.6 kPa, x2 = 0.6953	0.001286
243.07 K, 1032.4 kPa, x2 = 0.5959	0.001705
243.09 K, 1317 kPa, x2 = 0.6953	0.001286
248.05 K, 1059.7 kPa, x2 = 0.5959	0.001706
248.11 K, 1355.8 kPa, x2 = 0.6953	0.001286
253.04 K, 1086.8 kPa, x2 = 0.5959	0.001706
253.1 K, 1393.5 kPa, x2 = 0.6953	0.001287
258.09 K, 2081.3 kPa, x2 = 0.1499	0.000805
258.11 K, 1431.2 kPa, x2 = 0.6953	0.001287
263.02 K, 2626.7 kPa, x2 = 0.9071	0.000638
263.06 K, 2148.3 kPa, x2 = 0.1499	0.000805
263.08 K, 1140.7 kPa, x2 = 0.5959	0.001707
263.08 K, 1469 kPa, x2 = 0.6953	0.001287
263.09 K, 2245.7 kPa, x2 = 0.2607	0.000759
263.1 K, 2436.3 kPa, x2 = 0.4754	0.000668
268.02 K, 2719.9 kPa, x2 = 0.9071	0.000635
268.03 K, 2212.6 kPa, x2 = 0.1499	0.000806
268.04 K, 1168.2 kPa, x2 = 0.5959	0.001707
268.05 K, 1505.5 kPa, x2 = 0.6953	0.001287
268.08 K, 2515.8 kPa, x2 = 0.4754	0.000669
268.08 K, 2813.7 kPa, x2 = 0.3585	0.000579
268.08 K, 2907.1 kPa, x2 = 0.7478	0.000559
272.93 K, 1194.4 kPa, x2 = 0.5959	0.001708
272.93 K, 3330.4 kPa, x2 = 0.6929	0.000486
272.94 K, 1541.4 kPa, x2 = 0.6953	0.001288
272.95 K, 2909.1 kPa, x2 = 0.3585	0.00058
272.98 K, 3090.5 kPa, x2 = 0.0902	0.000512
273.04 K, 2808.9 kPa, x2 = 0.9071	0.000636
273.05 K, 2384.1 kPa, x2 = 0.2607	0.000759
273.06 K, 3007.9 kPa, x2 = 0.7478	0.000559
273.07 K, 2593.6 kPa, x2 = 0.4754	0.000669
273.12 K, 2276.8 kPa, x2 = 0.1499	0.000806
277.82 K, 3196.6 kPa, x2 = 0.0902	0.000513
277.86 K, 3791 kPa, x2 = 0.6099	0.000401
277.87 K, 3104 kPa, x2 = 0.7478	0.000559
277.94 K, 3453.5 kPa, x2 = 0.6929	0.000486
282.66 K, 3300.1 kPa, x2 = 0.0902	0.000513
282.82 K, 2743.7 kPa, x2 = 0.4754	0.000669
282.82 K, 3939.5 kPa, x2 = 0.6099	0.000401
282.83 K, 1245.4 kPa, x2 = 0.5959	0.001708
282.83 K, 1612.9 kPa, x2 = 0.6953	0.001288
282.83 K, 4250.2 kPa, x2 = 0.8378	0.00036
282.84 K, 3094.9 kPa, x2 = 0.3585	0.00058
282.9 K, 2980 kPa, x2 = 0.9071	0.000636
283.01 K, 2401.3 kPa, x2 = 0.1499	0.000806
283.01 K, 2518.2 kPa, x2 = 0.2607	0.000759
283.01 K, 3203.9 kPa, x2 = 0.7478	0.00056
283.01 K, 3574.6 kPa, x2 = 0.6929	0.000486
292.79 K, 3511.2 kPa, x2 = 0.0902	0.000513
292.89 K, 4229.6 kPa, x2 = 0.6099	0.000401
292.97 K, 1685.2 kPa, x2 = 0.6953	0.001289
292.97 K, 2524.4 kPa, x2 = 0.1499	0.000806
292.98 K, 1297.8 kPa, x2 = 0.5959	0.001709
292.98 K, 3279.6 kPa, x2 = 0.3585	0.00058
292.99 K, 3397 kPa, x2 = 0.7478	0.00056
292.99 K, 4597 kPa, x2 = 0.8378	0.00036
293.06 K, 2897.6 kPa, x2 = 0.4754	0.000669
293.06 K, 3153.2 kPa, x2 = 0.9071	0.000636
293.06 K, 3809.7 kPa, x2 = 0.6929	0.000486
293.11 K, 2651.8 kPa, x2 = 0.2607	0.00076
297.92 K, 4370.8 kPa, x2 = 0.6099	0.000401
298.04 K, 1323.7 kPa, x2 = 0.5959	0.001709
298.04 K, 2970.8 kPa, x2 = 0.4754	0.000669
298.04 K, 3235.8 kPa, x2 = 0.9071	0.000636
298.04 K, 3923.4 kPa, x2 = 0.6929	0.000486
298.05 K, 3617.5 kPa, x2 = 0.0902	0.000513
298.06 K, 3490.8 kPa, x2 = 0.7478	0.00056
299.02 K, 4795.1 kPa, x2 = 0.8378	0.00036
302.04 K, 2647.7 kPa, x2 = 0.1499	0.000807
303.02 K, 3458.7 kPa, x2 = 0.3585	0.00058
